This note sets out measurements from patent US20230382904A1, “SUBSTITUTED 4-([1,2,4]TRIAZOLO[1,5-a]PYRIDIN-6-YL)THIOPHENE-2-CARBOXAMIDE DERIVATIVES AND USE THEREOF” (The Johns Hopkins University, priority 2020, published 2023).

Test [1] has as its target LZK (Homo sapiens (Human), UniProt O43283). Put plainly: LZK biochemical assay (TR-FRET, MKK7 phosphorylation). Put shortly:
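Readout is the HTRF ratio (XL665/Eu) from an EDTA-containing detection mix of 0.4 nM Eu-anti-phospho-MKK7 (T275/S277) and 20 nM XL665-anti-His, incubated 16 h at 32° C. This followed a 90 min RT reaction of 10 nM LZK catalytic domain, 15 nM MKK7 and 15 μM ATP at pH 7.5.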
A general note: Time-resolved FRET reads energy transfer from a long-lived donor to a nearby acceptor.

Test [2] deals with DLK (Homo sapiens (Human), UniProt Q12852). The test is described as follows: DLK biochemical assay (TR-FRET, MKK7 phosphorylation). The gist of the method: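 TR-FRET ratio (665/Eu) reports MKK7 T275/S277 phosphorylation, lowered by DLK inhibition. Reaction: 60 μM ATP, 15 nM MKK7, 10 nM DLK catalytic domain, 90 min room temperature; detection incubation 16 h, 37° C. (1536-well) or 4° C. (384-well). Final concentrations.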
DLK, sequence (Q12852 1-520): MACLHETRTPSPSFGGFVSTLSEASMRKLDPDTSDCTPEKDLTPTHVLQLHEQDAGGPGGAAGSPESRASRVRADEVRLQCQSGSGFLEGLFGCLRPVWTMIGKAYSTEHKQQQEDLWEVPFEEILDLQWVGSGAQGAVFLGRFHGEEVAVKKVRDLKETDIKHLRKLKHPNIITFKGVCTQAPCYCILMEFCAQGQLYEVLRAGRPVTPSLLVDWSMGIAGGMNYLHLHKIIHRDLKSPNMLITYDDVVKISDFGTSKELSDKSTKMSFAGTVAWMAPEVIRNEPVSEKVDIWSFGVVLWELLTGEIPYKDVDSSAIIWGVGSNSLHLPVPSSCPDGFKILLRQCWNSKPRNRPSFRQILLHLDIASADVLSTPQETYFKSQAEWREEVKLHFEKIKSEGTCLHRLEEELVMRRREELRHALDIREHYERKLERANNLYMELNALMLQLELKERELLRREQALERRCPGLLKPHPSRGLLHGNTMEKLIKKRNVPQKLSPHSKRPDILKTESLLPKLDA

Each structure is given as a SMILES string.

LZK, sequence (O43283 168-409): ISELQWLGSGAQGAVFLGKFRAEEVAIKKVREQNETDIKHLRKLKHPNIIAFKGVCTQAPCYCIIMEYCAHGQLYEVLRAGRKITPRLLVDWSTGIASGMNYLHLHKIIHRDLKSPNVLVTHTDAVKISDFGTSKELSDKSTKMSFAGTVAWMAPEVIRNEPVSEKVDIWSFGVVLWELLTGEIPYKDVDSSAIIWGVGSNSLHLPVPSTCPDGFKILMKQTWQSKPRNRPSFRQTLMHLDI

A word on the IC50: it is the point on the concentration scale where inhibition reaches its midpoint. With `C[C@H]1CCC[C@H](NC(=O)c2cc(-c3ccc4nc(N)nn4c3)cs2)C1` (single isomer, unassigned) [Compound 199], the IC50 in test [1] is more than 30000 nM; in test [2], 1200 nM.

For the compound `Nc1nc2ccc(-c3csc(C(=O)NC4CCc5ccccc54)c3)cn2n1` (stereo not drawn) [Compound 307], the results for the IC50 in test [1] and in test [2] were 4500 nM and 150 nM, respectively.

`CCNC(=O)c1cc(-c2csc(C(=O)NCc3cccc(OC)c3)c2)cn2nc(N)nc12` [Compound 6]: the IC50 was 1100 nM in test [1] and 84 nM in test [2].

Regarding `C[C@H](NC(=O)c1cc(-c2cc(C(=O)N[C@@H](C)CO)c3nc(N)nn3c2)cs1)c1ccc(F)cc1` [Compound 26, 2-Amino-6-(5-{[(1S)-1-(4-fluorophenyl)ethyl]carbamoyl}thiophen-3-yl)-N-[(2S)-1-hydroxypropan-2-yl][1,2,4]triazolo[1,5-a]pyridine-8-carboxamide], the 50% inhibitory concentration (IC50) is 68 nM in test [1] and 6.4 nM in test [2].

Take `CCC(C)c1nnc(-c2cc(-c3csc(C(=O)N[C@@H](CC)c4ccc(F)cc4)c3)cn3nc(N)nc23)s1` (stereo partly drawn) [Compound 398]: the IC50 was found to be 3900 nM in test [1] and 880 nM in test [2].

For the compound `CC(C)NC(=O)c1cc(-c2csc(C(=O)N(C)[C@@H](C)c3ccc(F)cc3)c2)cn2nc(N)nc12` [Compound 99], the IC50 in test [1] was 2400 nM; in test [2], 330 nM.

Regarding `Nc1nc2ccc(-c3csc(C(=O)NCc4cccnc4)c3)cn2n1` [Compound 206], the values for the IC50 in test [1] and in test [2] were 28000 nM and 550 nM, respectively.

With `CNC(=O)c1cc(-c2csc(C(=O)NCc3ccc(F)cc3)c2)cn2nc(N)nc12` [Compound 9], the IC50 in test [1] came out at 1200 nM; in test [2], 130 nM.

With `Nc1nc2ccc(-c3csc(C(=O)NCc4cccc(OC(F)F)c4)c3)cn2n1` [Compound 195], the IC50 in test [1] is 8800 nM; in test [2], 480 nM.

Turning to `C[C@H](NC(=O)c1cc(-c2ccn3nc(N)nc3c2)cs1)c1ccc(F)cc1` [Compound 369], the IC50 in test [1] turned out to be 1900 nM; in test [2], 230 nM.

On to `Cc1csc(CNC(=O)c2cc(-c3ccc4nc(N)nn4c3)cs2)n1` [Compound 240], for which the IC50 came to 6300 nM in test [1] and 640 nM in test [2].

Regarding `CCC(C)c1nnc(-c2cc(-c3csc(C(=O)NCc4ccc(F)cc4)c3)cn3nc(N)nc23)s1` (stereo not drawn) [Compound 400], the results for the half-inhibitory concentration (IC50) in test [1] and in test [2] were 4350 nM and 2150 nM, respectively.

As to `Nc1nc2ccc(-c3csc(C(=O)NC4CCCC4)c3)cn2n1` [Compound 170], the IC50 in test [1] is more than 30000 nM; in test [2], 520 nM.

As to `COc1cccc(C(C)(C)NC(=O)c2cc(-c3ccc4nc(N)nn4c3)cs2)c1` [Compound 269], the IC50 was more than 30000 nM in test [1] and 590 nM in test [2].

Turning to `COc1cc(CNC(=O)c2cc(-c3ccc4nc(N)nn4c3)cs2)ccc1F` [Compound 231], the IC50 worked out at 11000 nM in test [1] and 860 nM in test [2].

Regarding `Nc1nc2cc(-c3csc(C(=O)NCC4CCCCC4)c3)ccn2n1` [Compound 366], the results for the IC50 in test [1] and in test [2] were more than 30000 nM and 310 nM, respectively.

Take `CC(NC(=O)c1cc(-c2csc(C(=O)N[C@@H](C)c3ccc(F)cc3)c2)cn2nc(N)nc12)C(F)(F)F` (mixture of isomers) [Compound 51]: the figures for the IC50 in test [1] and in test [2] were 240 nM and 28.5 nM, respectively.

For the compound `CC(NC(=O)c1cc(-c2csc(C(=O)N[C@@H](C)c3ccccc3)c2)cn2nc(N)nc12)C(F)(F)F` (single isomer, unassigned) [Compound 71], the IC50 in test [1] was 55 nM; in test [2], 4.85 nM.

For `CC(C)NC(=O)c1cc(-c2csc(C(=O)N[C@H](C)c3ccccc3)c2)cn2nc(N)nc12` [Compound 97], the IC50 in test [1] is 140 nM; in test [2] it was 16 nM.

On to `CC[C@H](NC(=O)c1cc(-c2cc(C(=O)N[C@H]3CCOC3)n3nc(N)nc3c2)cs1)c1ccc(F)cc1` [Compound 162], for which the values for the IC50 in test [1] and in test [2] were 77 nM and 3.5 nM, respectively.

On to `CNC(=O)c1cc(-c2csc(C(=O)NCc3ccccc3)c2)cn2nc(N)nc12` [Compound 10], for which the IC50 amounted to 990 nM in test [1] and 120 nM in test [2].
